Results reported in the supplement of paper PMC11208160.

Assay: recombinant UMI read abundance after kanamycin selection (control-corrected) (log10(CPM+1)); higher = more efficient recombination; extreme values may be limits of the assay; sequences stand for … in AGTGCAGAGAAAATCGGCCAGTTTTCTCTGCCTGCAGTCCGCATGCCGTGGGACCCCTTGGGTTCTAACCTGTTGCCTAGATTTATGCAGCGGACTGCCTTTCTCCCAAAGTGATAAACCGG…AGGTTGGTTTCACT; site = the 11-nt donor
Experimental: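 Pooled E. coli donor-specificity screen for the IS621 bridge recombinase. Each library member carries a reprogrammed 11-nt donor and a full-length LE bridge RNA expressed in cis from the natural promoter, with a paired donor-binding loop (8-nt LDG + 4-nt RDG) and a target-binding loop fixed to T5. It is co-electroporated with a T5 target plasmid; recombinase is induced with 0.07 mM IPTG and recombinants are selected on kanamycin. UMIs are counted as CPM, averaged over two biological replicates and corrected by the unselected control. Molecule = full bridge RNA written as DNA, built from the T5 scaffold: LDG = donor specificity nt 1-8, RDG = reverse complement of nt 8-11.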
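Also: IS621 bridge recombinase in Escherichia coli cells against a fixed T5 target plasmid.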

Going from “ACATCGACATGGACCGGTTTTCCCGGTAATCCGTATTTGTG (site ACATCGACTCA)” to “ACATCGACATGGACCGGTTTTCCCGGTAATCCGTATTTGTG (site ACATCTACTCA)”, the “recombinant UMI read abundance (log10)” value falls from 0.245 to 0.00913.

“ACATCTACATGGACCGGTTTTCCCGGTAATCCGTATTTGAG (site ACATCTACTCA)” and “ACATCTACATGGACCGGTTTTCCCGGTAATCCGTATTTGAG (site ACATCTACTCC)” are within 0.2 log units of each other in “recombinant UMI read abundance (log10)” value: 0.0306 for the first, 0.184 for the second.

First: ACATCTACATGGACCGGTTTTCCCGGTAATCCGTATTTGAG (site ACATCTACTCG)
Second: ACATCTACATGGACCGGTTTTCCCGGTAATCCGTATTTGAG (site ACATCTACTCT)
The “recombinant UMI read abundance (log10)” value of the first is lower: 0.0217 for the first, 1.67 for the second.

“ACATCTACATGGACCGGTTTTCCCGGTAATCCGTATTTGTA (site ACATCTACTAA)” and “ACATCTACATGGACCGGTTTTCCCGGTAATCCGTATTTGTA (site ACATCTACTCA)” are within 0.2 log units of each other in “recombinant UMI read abundance (log10)” value: 0.0109 for the first, 0.0123 for the second.

First: ACATCTACATGGACCGGTTTTCCCGGTAATCCGTATTTGTA (site ACATCTACTGA)
Second: ACATCTACATGGACCGGTTTTCCCGGTAATCCGTATTTGTA (site ACATCTACTTA)
The “recombinant UMI read abundance (log10)” value of the first is lower: 0 for the first, 0.989 for the second.

“ACATCTCCATGGACCGGTTTTCCCGGTAATCCGTATTTGTG (site ACATCTACTCA)” and “ACATCTCCATGGACCGGTTTTCCCGGTAATCCGTATTTGTG (site ACATCTCCTCA)” are within 0.2 log units of each other in “recombinant UMI read abundance (log10)” value: 0.0166 for the first, 0.00967 for the second.

“ACATCTCCATGGACCGGTTTTCCCGGTAATCCGTATTTGTG (site ACATCTGCTCA)” and “ACATCTCCATGGACCGGTTTTCCCGGTAATCCGTATTTGTG (site ACATCTTCTCA)” are within 0.2 log units of each other in “recombinant UMI read abundance (log10)” value: 0.0416 for the first, 0.00664 for the second.

“ACATCTTCATGGACCGGTTTTCCCGGTAATCCGTATTTGTG (site ACATCTACTCA)” and “ACATCTTCATGGACCGGTTTTCCCGGTAATCCGTATTTGTG (site ACATCTCCTCA)” are within 0.2 log units of each other in “recombinant UMI read abundance (log10)” value: 0.0158 for the first, 0.0151 for the second.

First: ACATCTTCATGGACCGGTTTTCCCGGTAATCCGTATTTGTG (site ACATCTGCTCA)
Second: ACATCTTCATGGACCGGTTTTCCCGGTAATCCGTATTTGTG (site ACATCTTCTCA)
The “recombinant UMI read abundance (log10)” value of the first is lower: 0 for the first, 0.969 for the second.

Compared with “ACATGAACATGGACCGGTTTTCCCGGTAATCCGTATTTGAC (site ACATGAACTGT)”, “ACATGATCATGGACCGGTTTTCCCGGTAATCCGTATTTGCA (site ACAGTATCTTG)” is lower in “recombinant UMI read abundance (log10)” value: 2.71 for the first, 1.14 for the second.

First: ACATGATCATGGACCGGTTTTCCCGGTAATCCGTATTTGCA (site ACATGATCTTG)
Second: ACATGCGCATGGACCGGTTTTCCCGGTAATCCGTATTTGGT (site ACATGCGCTAC)
The “recombinant UMI read abundance (log10)” value of the first is higher: 2.74 for the first, 1.02 for the second.

“ACATTACCATGGACCGGTTTTCCCGGTAATCCGTATTTGGA (site ACATTACCTTC)” and “ACATTATCATGGACCGGTTTTCCCGGTAATCCGTATTTGAA (site ACAGTATCTTG)” are the same in “recombinant UMI read abundance (log10)” value: 0 for the first, 0 for the second.

Compared with “ACATTATCATGGACCGGTTTTCCCGGTAATCCGTATTTGAA (site ACATTATCTTT)”, “ACATTGCCATGGACCGGTTTTCCCGGTAATCCGTATTTGGG (site ACATTGCCTCC)” is lower in “recombinant UMI read abundance (log10)” value: 2.38 for the first, 0.0159 for the second.

First: ACATTGGCATGGACCGGTTTTCCCGGTAATCCGTATTTGTT (site ACATTGGCTAA)
Second: ACCAATTCATGGACCGGTTTTCCCGGTAATCCGTATTTGCC (site ACCAATTCTGG)
The “recombinant UMI read abundance (log10)” value of the first is lower: 1.53 for the first, 2.25 for the second.

Going from “ACCAATTCATGGACCGGTTTTCCCGGTAATCCGTATTTGCC (site CCCAATTCTGG)” to “ACCAATTCATGGACCGGTTTTCCCGGTAATCCGTATTTGCC (site GCCAATTCTGG)”, the “recombinant UMI read abundance (log10)” value falls from 1.91 to 0.507.

Compared with “ACCAATTCATGGACCGGTTTTCCCGGTAATCCGTATTTGCC (site TCCAATTCTGG)”, “ACCAGAACATGGACCGGTTTTCCCGGTAATCCGTATTTGAG (site ACAAGAACTCT)” is lower in “recombinant UMI read abundance (log10)” value: 0.66 for the first, 0 for the second.
